Measurements reported in patent publication US9528156B2, “Method for determining the predisposition of a patient to changed biotransformation and to the development of undesired drug effects in a treatment of the patient with atrovastatin” (Robert Bosch GmbH, priority 2009, dated 2016).

Tests used:
[1] = test system: UGT1A3; conditions: human liver microsomes, genotype-phenotype correlation
Description: (§1) The reaction is started by addition of 10 mM UDP glucuronic acid, the cosubstrate of the UDP glucuronosyl transferases (UGT). The samples were incubated for 30 minutes. The reaction was stopped by addition of 25 μl of ice-cold 250 mM formic acid in acetonitrile and the vortexed samples were immediately placed on ice. […] The samples were centrifuged for 5 minutes at 13,000 rpm and placed in glass vessels for the LC/MS measurement.
(§2) The samples are separated on an XBridge Shield RP18 3.5 μm column with a C8 precolumn with a 1 mM formic acid and acetonitrile gradient for 23 minutes at 30° C. The masses are detected by HCT Esquire plus mass spectrometer, this being after electrospray ionization of the substances separated by the column.

[2] = molecular target: T1, UGT1A1 (Homo sapiens, UniProt P22309); experiment: ATV lactonization by recombinant UGT1A1 (LC-MS); type: in vitro ADME; conditions: among various recombinant UGT enzymes; substrate 0.6 μM and 6 μM
T1 sequence (P22309 26-533): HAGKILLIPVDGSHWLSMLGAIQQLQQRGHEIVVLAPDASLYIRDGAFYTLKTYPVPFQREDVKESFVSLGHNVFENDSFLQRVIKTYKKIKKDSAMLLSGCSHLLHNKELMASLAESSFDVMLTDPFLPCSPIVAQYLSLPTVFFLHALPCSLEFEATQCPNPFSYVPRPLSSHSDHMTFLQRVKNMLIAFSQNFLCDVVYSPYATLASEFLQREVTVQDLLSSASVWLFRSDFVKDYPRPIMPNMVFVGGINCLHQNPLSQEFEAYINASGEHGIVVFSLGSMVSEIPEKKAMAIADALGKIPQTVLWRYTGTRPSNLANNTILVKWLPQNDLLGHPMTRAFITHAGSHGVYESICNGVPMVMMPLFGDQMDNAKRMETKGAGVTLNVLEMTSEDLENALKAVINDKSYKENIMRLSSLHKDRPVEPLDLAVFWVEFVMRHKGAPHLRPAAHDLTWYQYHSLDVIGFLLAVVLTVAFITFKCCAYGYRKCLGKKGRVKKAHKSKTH
Description: as §1, §2

[3] = molecular target: T2, recombinant UGT1A3 (Homo sapiens, UniProt P35503); conditions: among various recombinant UGT enzymes; substrate 0.6 μM and 6 μM
T2 sequence (P35503 29-534): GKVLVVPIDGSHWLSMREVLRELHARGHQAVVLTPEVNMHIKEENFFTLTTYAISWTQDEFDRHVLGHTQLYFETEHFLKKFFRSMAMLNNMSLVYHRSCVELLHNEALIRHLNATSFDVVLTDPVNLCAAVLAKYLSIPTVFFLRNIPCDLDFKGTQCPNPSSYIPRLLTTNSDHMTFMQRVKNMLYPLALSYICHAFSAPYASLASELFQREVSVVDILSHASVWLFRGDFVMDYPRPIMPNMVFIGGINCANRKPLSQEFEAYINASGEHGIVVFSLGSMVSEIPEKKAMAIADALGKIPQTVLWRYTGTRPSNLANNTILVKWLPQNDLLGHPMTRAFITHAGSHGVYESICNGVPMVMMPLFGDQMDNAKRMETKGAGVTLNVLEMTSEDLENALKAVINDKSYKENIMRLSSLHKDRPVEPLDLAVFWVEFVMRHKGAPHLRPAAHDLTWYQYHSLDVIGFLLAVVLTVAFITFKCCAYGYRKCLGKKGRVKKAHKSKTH
Description: as §1, §2

SMILES: CC(C)c1c(C(=O)Nc2ccccc2)c(-c2ccccc2)c(-c2ccc(F)cc2)n1CC[C@@H](O)C[C@@H](O)CC(=O)O [atorvastatin]
- activity for ATV lactonization in homozygotic UGT1A3*2 carriers compared to wild type samples [1]: increased twofold
- activity for the catalysis of the ATV lactonization [2]: only low activity
- specific activity for the catalysis of the ATV lactonization [3]: highest specific activity
